Test results: ChEMBL document CHEMBL4311959, “Discovery of a potent p38α/MAPK14 kinase inhibitor: Synthesis, in vitro/in vivo biological evaluation, and docking studies” (Eur J Med Chem, 2019)

What was measured:
[1] = Stability in human plasma assessed as remaining compound at 10 uM incubated for 120 mins by LC-MS analysis; type: ADME, cell-free; details: read-out: Stability
[2] = AUCinfinity in Sprague-Dawley rat at 10 mg/kg, iv measured for each 30 mins by LC-MS/MS analysis; type: ADME, organism-based; parameters: dose 10 mg/kg, time infinity, route intravenous; details: in vivo
[3] = Clearance in Sprague-Dawley rat at 10 mg/kg, iv measured for each 30 mins by LC-MS/MS analysis; type: ADME, organism-based; details: in vivo
[4] = AUClast in Sprague-Dawley rat at 10 mg/kg, iv measured for each 30 mins by LC-MS/MS analysis; type: ADME, organism-based; parameters: dose 10 mg/kg, route intravenous, time 0 - last; details: in vivo
[5] = target: Proto-oncogene tyrosine-protein kinase ROS (Homo sapiens) (UniProt P08922); test: Inhibition of human ROS at 10 uM using KKKSPGEYVNIEFG as substrate by [gamma-33P]-ATP assay relative to control
[6] = target: T1, Mitogen-activated protein kinase 14 (Homo sapiens, UniProt Q16539); test: Inhibition of human p38alpha using MBP as substrate by [gamma-33P]-ATP assay
[7] = target: Dual specificity mitogen-activated protein kinase kinase 6 (Homo sapiens) (UniProt P52564); test: Inhibition of human MKK6 at 10 uM using p38alpha as substrate by [gamma-33P]-ATP assay relative to control
[8] = Stability in rat plasma assessed as remaining compound at 10 uM incubated for 30 mins by LC-MS analysis; type: ADME, cell-free; details: read-out: Stability
[9] = target: RAF proto-oncogene serine/threonine-protein kinase (Homo sapiens, UniProt P04049); test: Inhibition of human RAF1 using MEK1 as substrate by [gamma-33P]-ATP assay
[10] = AUCinfinity in Sprague-Dawley rat at 10 mg/kg, po measured for each 30 mins by LC-MS/MS analysis; type: ADME, organism-based; parameters: dose 10 mg/kg, time infinity, route oral; details: in vivo
[11] = target: Insulin receptor (Homo sapiens) (UniProt P06213); test: Inhibition of human IR at 10 uM using poly[Glu:Tyr] (4:1) as substrate by [gamma-33P]-ATP assay relative to control
[12] = Oral bioavailability in Sprague-Dawley rat at 10 mg/kg measured for each 30 mins by LC-MS/MS analysis; type: ADME, organism-based; details: in vivo
[13] = target: Serine/threonine-protein kinase B-raf (Homo sapiens) (UniProt P15056); test: Inhibition of human BRAF at 10 uM using MEK1 (K97R) as substrate by [gamma-33P]-ATP assay relative to control
[14] = target: Serine/threonine-protein kinase mTOR (Homo sapiens) (UniProt P42345); test: Inhibition of human mTOR at 10 uM using 4EBP1 as substrate by [gamma-33P]-ATP assay relative to control
[15] = target: Hepatocyte growth factor receptor (Homo sapiens, UniProt P08581); test: Inhibition of human c-MET at 10 uM using KKKSPGEYVNIEFG as substrate by [gamma-33P]-ATP assay relative to control
[16] = target: Receptor tyrosine-protein kinase erbB-4 (Homo sapiens) (UniProt Q15303); test: Inhibition of human ERBB4 at 10 uM using poly[Glu:Tyr] (4:1) as substrate by [gamma-33P]-ATP assay relative to control
[17] = target: Receptor tyrosine-protein kinase erbB-2 (Homo sapiens) (UniProt P04626); test: Inhibition of human ERBB2 at 10 uM using poly[Glu:Tyr] (4:1) as substrate by [gamma-33P]-ATP assay relative to control
[18] = target: Aurora kinase A (Homo sapiens) (UniProt O14965); test: Inhibition of human Aurora A at 10 uM using [H-LRRASLG] as substrate by [gamma-33P]-ATP assay relative to control
Rattus norvegicus = test: Antiinflammatory activity in Sprague-Dawley rat assessed as inhibition of carrageenan-induced paw edema at 50 mg/kg, ip administered 1 hr before carrageenan stimulation and measured after 3 hrs relative to control; type: functional
[19] = target: T1, Mitogen-activated protein kinase 14; test: Inhibition of human p38alpha at 10 uM using MBP as substrate by [gamma-33P]-ATP assay relative to control
[20] = target: RAC-alpha serine/threonine-protein kinase (Homo sapiens) (UniProt P31749); test: Inhibition of human AKT1 at 10 uM using KGSGSGRPRTSSFAEG as substrate by [gamma-33P]-ATP assay relative to control
[21] = test system: Mitogen-activated protein kinase 14 (Homo sapiens), Q16539 [T106M]; test: Inhibition of human p38alpha T106M mutant at 10 uM using MBP as substrate by [gamma-33P]-ATP assay relative to control
[22] = test system: Serine/threonine-protein kinase B-raf (Homo sapiens), P15056 [V600E]; test: Inhibition of human BRAF V600E mutant at 10 uM using MEK1 (K97R) as substrate by [gamma-33P]-ATP assay relative to control
[23] = target: Tyrosine-protein kinase Tec (Homo sapiens) (UniProt P42680); test: Inhibition of human TEC at 10 uM using poly[Glu:Tyr] (4:1) as substrate by [gamma-33P]-ATP assay relative to control
[24] = Half life in Sprague-Dawley rat at 10 mg/kg, po measured for each 30 mins by LC-MS/MS analysis; type: ADME, organism-based; details: in vivo
[25] = target: Fibroblast growth factor receptor 1 (Homo sapiens) (UniProt P11362); test: Inhibition of human FGFR1 at 10 uM using KKKSPGEYVNIEFG as substrate by [gamma-33P]-ATP assay relative to control
[26] = target: Macrophage colony-stimulating factor 1 receptor (Homo sapiens) (UniProt P07333); test: Inhibition of human FMS at 10 uM using poly[Glu:Tyr] (4:1) as substrate by [gamma-33P]-ATP assay relative to control
[27] = target: Cyclin-dependent kinase 2/cyclin E1 (Homo sapiens) (UniProt P24864+P24941); test: Inhibition of human CDK2/cyclin-E at 10 uM using histone H1 as substrate by [gamma-33P]-ATP assay relative to control; type: protein-complex assay
[28] = target: Serine/threonine-protein kinase A-Raf (Homo sapiens) (UniProt P10398); test: Inhibition of human ARAF at 10 uM using MEK1 as substrate by [gamma-33P]-ATP assay relative to control
[29] = target: Mitogen-activated protein kinase 11 (Homo sapiens) (UniProt Q15759); test: Inhibition of human p38beta at 10 uM using MBP as substrate by [gamma-33P]-ATP assay relative to control
[30] = target: Proto-oncogene tyrosine-protein kinase Src (Homo sapiens) (UniProt P12931); test: Inhibition of human c-SRC at 10 uM using poly[Glu:Tyr] (4:1) as substrate by [gamma-33P]-ATP assay relative to control
[31] = target: Epidermal growth factor receptor (Homo sapiens) (UniProt P00533); test: Inhibition of human EGFR at 10 uM using poly[Glu:Tyr] (4:1) as substrate by [gamma-33P]-ATP assay relative to control
[32] = target: Tyrosine-protein kinase JAK2 (Homo sapiens) (UniProt O60674); test: Inhibition of human JAK2 at 10 uM using poly[Glu:Tyr] (4:1) as substrate by [gamma-33P]-ATP assay relative to control

T1 sequence (Q16539 whole entry): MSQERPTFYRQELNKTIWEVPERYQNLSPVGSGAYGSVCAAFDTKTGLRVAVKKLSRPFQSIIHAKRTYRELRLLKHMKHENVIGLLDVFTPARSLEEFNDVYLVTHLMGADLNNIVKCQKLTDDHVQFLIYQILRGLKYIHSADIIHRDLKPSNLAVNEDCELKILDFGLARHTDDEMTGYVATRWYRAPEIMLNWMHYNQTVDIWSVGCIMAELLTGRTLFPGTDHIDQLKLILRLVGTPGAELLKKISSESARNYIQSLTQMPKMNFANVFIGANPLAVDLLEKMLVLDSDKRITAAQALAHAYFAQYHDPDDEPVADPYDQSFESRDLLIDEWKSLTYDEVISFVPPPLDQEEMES
Dual specificity mitogen-activated protein kinase kinase 6 (Homo sapiens), sequence (P52564 whole entry): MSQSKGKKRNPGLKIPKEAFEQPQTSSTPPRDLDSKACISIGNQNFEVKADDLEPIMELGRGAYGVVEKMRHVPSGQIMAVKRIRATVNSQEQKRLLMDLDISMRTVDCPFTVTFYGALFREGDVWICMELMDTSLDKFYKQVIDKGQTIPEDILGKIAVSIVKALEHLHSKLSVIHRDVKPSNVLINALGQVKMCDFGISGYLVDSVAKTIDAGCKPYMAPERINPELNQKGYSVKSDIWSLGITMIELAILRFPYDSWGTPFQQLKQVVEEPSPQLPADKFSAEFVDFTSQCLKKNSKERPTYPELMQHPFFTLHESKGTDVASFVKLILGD
Hepatocyte growth factor receptor, sequence (P08581 whole entry): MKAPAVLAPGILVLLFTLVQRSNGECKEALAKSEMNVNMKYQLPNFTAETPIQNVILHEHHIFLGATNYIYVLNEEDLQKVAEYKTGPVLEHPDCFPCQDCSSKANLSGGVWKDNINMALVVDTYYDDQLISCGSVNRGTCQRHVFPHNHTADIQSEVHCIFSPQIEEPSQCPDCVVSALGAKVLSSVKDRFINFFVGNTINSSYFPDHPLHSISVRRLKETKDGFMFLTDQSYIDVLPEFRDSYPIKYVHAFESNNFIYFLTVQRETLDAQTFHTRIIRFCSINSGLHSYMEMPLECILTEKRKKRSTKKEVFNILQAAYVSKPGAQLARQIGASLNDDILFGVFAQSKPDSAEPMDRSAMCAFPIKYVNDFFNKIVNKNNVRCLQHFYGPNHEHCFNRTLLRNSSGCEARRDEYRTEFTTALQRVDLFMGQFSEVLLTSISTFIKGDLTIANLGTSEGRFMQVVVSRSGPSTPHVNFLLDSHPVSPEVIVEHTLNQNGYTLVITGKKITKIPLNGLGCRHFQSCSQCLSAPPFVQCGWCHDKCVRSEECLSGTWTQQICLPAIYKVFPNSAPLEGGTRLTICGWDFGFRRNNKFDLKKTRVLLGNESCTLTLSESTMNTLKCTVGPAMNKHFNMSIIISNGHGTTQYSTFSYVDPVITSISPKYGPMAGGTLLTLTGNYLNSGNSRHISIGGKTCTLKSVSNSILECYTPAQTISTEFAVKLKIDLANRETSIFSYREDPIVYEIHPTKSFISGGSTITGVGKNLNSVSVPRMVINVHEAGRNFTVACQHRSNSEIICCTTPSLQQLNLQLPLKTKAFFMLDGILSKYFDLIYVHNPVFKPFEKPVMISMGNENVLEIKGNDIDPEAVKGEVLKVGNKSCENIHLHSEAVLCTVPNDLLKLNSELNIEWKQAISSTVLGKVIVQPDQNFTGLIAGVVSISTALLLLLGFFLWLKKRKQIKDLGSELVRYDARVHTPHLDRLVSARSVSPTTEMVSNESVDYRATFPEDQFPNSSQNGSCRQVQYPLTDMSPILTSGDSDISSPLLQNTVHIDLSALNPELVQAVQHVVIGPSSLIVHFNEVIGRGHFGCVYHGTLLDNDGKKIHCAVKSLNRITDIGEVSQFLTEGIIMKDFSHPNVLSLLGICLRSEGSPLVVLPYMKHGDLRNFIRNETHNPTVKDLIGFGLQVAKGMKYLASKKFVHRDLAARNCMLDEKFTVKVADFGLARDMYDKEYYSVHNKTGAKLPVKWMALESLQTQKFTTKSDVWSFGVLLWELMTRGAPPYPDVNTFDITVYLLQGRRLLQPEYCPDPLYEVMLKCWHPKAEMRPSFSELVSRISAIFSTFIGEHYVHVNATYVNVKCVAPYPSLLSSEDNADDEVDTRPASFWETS
Insulin receptor (Homo sapiens), sequence (P06213 28-758 limits assumed): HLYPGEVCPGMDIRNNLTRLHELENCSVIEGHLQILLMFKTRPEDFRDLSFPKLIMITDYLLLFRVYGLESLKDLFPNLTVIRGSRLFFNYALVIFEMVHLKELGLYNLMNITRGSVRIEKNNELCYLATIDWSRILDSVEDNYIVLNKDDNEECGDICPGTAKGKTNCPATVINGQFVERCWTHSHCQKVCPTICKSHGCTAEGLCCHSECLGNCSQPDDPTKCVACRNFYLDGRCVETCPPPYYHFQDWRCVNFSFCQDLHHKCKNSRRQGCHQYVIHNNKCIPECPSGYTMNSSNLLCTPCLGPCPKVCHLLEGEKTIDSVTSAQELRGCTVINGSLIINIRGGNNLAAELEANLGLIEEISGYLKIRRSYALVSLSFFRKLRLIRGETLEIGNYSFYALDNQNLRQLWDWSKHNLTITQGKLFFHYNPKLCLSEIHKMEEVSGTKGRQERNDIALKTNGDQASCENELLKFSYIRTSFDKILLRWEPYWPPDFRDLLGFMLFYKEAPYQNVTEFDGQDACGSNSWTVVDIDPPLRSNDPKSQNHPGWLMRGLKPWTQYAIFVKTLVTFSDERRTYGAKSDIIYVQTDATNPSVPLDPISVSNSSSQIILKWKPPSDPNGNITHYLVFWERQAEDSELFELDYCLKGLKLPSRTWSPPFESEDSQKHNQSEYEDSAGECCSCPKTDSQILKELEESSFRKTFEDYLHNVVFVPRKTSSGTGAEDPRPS
Insulin receptor (Homo sapiens), sequence (P06213 763-1382 limits assumed): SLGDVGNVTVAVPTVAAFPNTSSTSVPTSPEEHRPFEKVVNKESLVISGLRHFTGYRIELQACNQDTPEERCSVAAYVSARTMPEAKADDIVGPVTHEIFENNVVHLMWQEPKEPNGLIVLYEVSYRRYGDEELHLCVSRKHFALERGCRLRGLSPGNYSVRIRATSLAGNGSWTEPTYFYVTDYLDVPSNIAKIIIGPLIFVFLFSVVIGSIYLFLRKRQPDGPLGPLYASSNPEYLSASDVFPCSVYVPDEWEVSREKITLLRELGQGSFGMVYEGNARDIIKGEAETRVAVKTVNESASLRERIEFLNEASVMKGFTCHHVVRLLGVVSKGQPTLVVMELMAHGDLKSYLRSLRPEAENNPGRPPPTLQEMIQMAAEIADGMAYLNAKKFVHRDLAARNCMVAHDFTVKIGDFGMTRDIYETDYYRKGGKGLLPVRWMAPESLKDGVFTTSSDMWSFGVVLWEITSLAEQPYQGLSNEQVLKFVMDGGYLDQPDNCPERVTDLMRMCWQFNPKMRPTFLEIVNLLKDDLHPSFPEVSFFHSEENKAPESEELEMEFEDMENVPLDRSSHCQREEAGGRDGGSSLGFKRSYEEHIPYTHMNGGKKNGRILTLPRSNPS
Receptor tyrosine-protein kinase erbB-2 (Homo sapiens), sequence (P04626 whole entry): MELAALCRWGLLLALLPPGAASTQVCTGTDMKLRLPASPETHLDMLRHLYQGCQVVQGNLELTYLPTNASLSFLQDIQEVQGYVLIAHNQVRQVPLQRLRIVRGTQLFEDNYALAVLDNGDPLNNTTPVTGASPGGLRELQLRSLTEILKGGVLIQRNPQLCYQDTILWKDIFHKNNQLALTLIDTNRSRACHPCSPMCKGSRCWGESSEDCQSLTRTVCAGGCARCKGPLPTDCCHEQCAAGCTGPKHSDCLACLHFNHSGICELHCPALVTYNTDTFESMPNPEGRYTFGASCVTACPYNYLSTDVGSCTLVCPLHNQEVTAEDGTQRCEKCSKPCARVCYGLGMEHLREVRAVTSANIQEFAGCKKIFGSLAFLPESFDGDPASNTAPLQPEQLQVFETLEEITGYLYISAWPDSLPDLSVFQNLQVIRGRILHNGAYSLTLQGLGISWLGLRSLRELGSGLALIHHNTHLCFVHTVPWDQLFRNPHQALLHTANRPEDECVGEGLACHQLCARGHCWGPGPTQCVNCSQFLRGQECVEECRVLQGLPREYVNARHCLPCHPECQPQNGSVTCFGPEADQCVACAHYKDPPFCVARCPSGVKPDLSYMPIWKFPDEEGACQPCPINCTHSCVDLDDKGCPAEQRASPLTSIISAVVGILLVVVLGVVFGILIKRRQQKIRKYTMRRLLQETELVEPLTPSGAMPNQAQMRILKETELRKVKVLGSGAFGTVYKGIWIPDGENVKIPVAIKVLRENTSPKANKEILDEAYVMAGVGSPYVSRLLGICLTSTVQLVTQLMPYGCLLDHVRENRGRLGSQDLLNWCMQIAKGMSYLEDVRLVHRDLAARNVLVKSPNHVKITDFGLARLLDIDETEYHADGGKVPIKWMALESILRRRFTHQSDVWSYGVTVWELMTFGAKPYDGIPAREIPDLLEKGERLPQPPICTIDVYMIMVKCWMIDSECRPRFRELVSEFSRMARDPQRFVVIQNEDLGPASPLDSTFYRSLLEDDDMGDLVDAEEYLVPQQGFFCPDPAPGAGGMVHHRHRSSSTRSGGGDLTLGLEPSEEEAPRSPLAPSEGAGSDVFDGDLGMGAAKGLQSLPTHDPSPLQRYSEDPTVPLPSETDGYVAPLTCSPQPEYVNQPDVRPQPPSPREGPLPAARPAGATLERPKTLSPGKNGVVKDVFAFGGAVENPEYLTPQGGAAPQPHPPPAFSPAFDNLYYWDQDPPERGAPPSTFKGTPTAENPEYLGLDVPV
Mitogen-activated protein kinase 11 (Homo sapiens), sequence (Q15759 whole entry): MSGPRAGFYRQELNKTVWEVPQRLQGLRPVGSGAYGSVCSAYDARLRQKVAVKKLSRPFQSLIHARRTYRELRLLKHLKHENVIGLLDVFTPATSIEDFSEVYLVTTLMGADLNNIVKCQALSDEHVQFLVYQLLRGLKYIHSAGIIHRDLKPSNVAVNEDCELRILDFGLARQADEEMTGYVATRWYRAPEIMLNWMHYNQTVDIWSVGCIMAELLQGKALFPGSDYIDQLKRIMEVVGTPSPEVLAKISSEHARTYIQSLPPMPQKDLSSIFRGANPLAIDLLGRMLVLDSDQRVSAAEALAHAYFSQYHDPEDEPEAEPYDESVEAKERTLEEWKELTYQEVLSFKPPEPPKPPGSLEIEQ

Which remaining at 2 h, 10 µM [1] does the source give for `COc1ccc(-c2nn(-c3cccc(NC(=O)c4cccc(C(F)(F)F)c4)c3)cc2-c2ccncc2)cc1Cl` here?
Its remaining at 2 h, 10 µM is 98.4%.

What about the AUC(0-inf) [2] of the same molecule?
The AUC(0-inf) was 1460 ng·h/mL.

And the clearance [3]?
The clearance was 90 mL/min/kg.

What about the AUC(0-t) at 0.5 h [4] of the same molecule?
Its AUC(0-t) at 0.5 h is 1450 ng·h/mL.

What about the inhibition [5] of the same molecule?
The inhibition was 5.26%.

And the IC50 [6]?
Its IC50 is 22 nM.

What about the inhibition [7] of the same molecule?
The inhibition was 29.5%.

What about the remaining at 0.5 h, 10 µM [8] of the same molecule?
Its remaining at 0.5 h, 10 µM is 100%.

What about the IC50 [9] of the same molecule?
Its IC50 is 336 nM.

What about the AUC(0-inf) [10] of the same molecule?
Its AUC(0-inf) is 169 ng·h/mL.

And the inhibition [11]?
The inhibition was -0.36%.

And the bioavailability [12]?
The bioavailability was 11.3%.

And the inhibition [13]?
The inhibition was 54.4%.

And the inhibition [14]?
The inhibition was 6.75%.

And the inhibition [15]?
The inhibition was 77.7%.

And the inhibition [16]?
Its inhibition is 26.9%.

And the inhibition [17]?
Its inhibition is 20.4%.

What about the inhibition [18] of the same molecule?
Its inhibition is 3.1%.

What about the inhibition in vivo at 50 mg/kg (Rattus norvegicus) of the same molecule?
Its inhibition in vivo at 50 mg/kg is 66.5%.

And the inhibition [19]?
The inhibition was 94.6%.

What about the inhibition [20] of the same molecule?
Its inhibition is 7.06%.

And the inhibition [21]?
The inhibition was -4.1%.

And the inhibition [22]?
The inhibition was 90.8%.

And the inhibition [23]?
Its inhibition is -3.79%.

And the half-life [24]?
The half-life was 7.3 h.

What about the inhibition [25] of the same molecule?
The inhibition was 24.4%.

And the inhibition [26]?
Its inhibition is 19%.

And the inhibition [27]?
The inhibition was 2.43%.

And the inhibition [28]?
The inhibition was 64.2%.

What about the inhibition [29] of the same molecule?
The inhibition was 63.2%.

What about the inhibition [30] of the same molecule?
The inhibition was 33.4%.

And the inhibition [31]?
Its inhibition is 24.5%.

And the inhibition [32]?
The inhibition was -9.88%.
